Legend:
[1] = test system: HEK-293T; assay: Cytotoxicity against human 293T cells assessed as reduction in cell viability measured after 48 hrs by MTT assay; assay type: cell-based
[2] = biological target: GTPase KRas (Homo sapiens) (UniProt P01116); assay: Inhibition of KRAS in human MDA-MB-231 cells assessed as reduction in MEK1/2 9G3 protein level at 15 uM measured after 24 hrs by Western blot analysis relative to control; assay type: cell-based
[3] = biological target: GTPase KRas (Homo sapiens) (UniProt P01116); assay: Inhibition of KRAS in human MDA-MB-231 cells assessed as reduction in ERK1/2 137F5 protein level at 15 uM measured after 24 hrs by Western blot analysis relative to control; assay type: cell-based
[4] = biological target: GTPase KRas (Homo sapiens) (UniProt P01116); assay: Inhibition of KRAS in human MDA-MB-231 cells assessed as reduction in phosphorylated ERK1/2 at Thr185/Tyr187 residues protein level at 15 uM measured after 24 hrs by Western blot analysis relative to control; assay type: cell-based
[5] = biological target: GTPase KRas (Homo sapiens) (UniProt P01116); assay: Inhibition of KRAS in human MDA-MB-231 cells assessed as reduction in Pan RAS protein level at 25 uM measured after 24 hrs by Western blot analysis relative to control; assay type: cell-based
[6] = biological target: GTPase KRas (Homo sapiens) (UniProt P01116); assay: Inhibition of KRAS in human MDA-MB-231 cells assessed as reduction in phosphorylated RAF-1 E1 protein level at 25 uM measured after 24 hrs by Western blot analysis relative to control; assay type: cell-based
[7] = biological target: GTPase KRas (Homo sapiens) (UniProt P01116); assay: Inhibition of KRAS in human MDA-MB-231 cells assessed as reduction in MEK1/2 9G3 protein level at 25 uM measured after 24 hrs by Western blot analysis relative to control; assay type: cell-based
[8] = biological target: GTPase KRas (Homo sapiens) (UniProt P01116); assay: Inhibition of KRAS in human MDA-MB-231 cells assessed as reduction in phosphorylated MEK1/2 at Ser217/221 residues protein level at 25 uM measured after 24 hrs by Western blot analysis relative to control; assay type: cell-based
[9] = biological target: GTPase KRas (Homo sapiens) (UniProt P01116); assay: Inhibition of KRAS in human MDA-MB-231 cells assessed as reduction in phosphorylated ERK1/2 at Thr185/Tyr187 residues protein level at 25 uM measured after 24 hrs by Western blot analysis relative to control; assay type: cell-based
[10] = biological target: GTPase KRas (Homo sapiens) (UniProt P01116); assay: Inhibition of KRAS in human MDA-MB-231 cells assessed as reduction in phosphorylated RAF-1 E1 protein level at 35 uM measured after 24 hrs by Western blot analysis relative to control; assay type: cell-based
[11] = biological target: GTPase KRas (Homo sapiens) (UniProt P01116); assay: Inhibition of KRAS in human MDA-MB-231 cells assessed as reduction in MEK1/2 9G3 protein level at 35 uM measured after 24 hrs by Western blot analysis relative to control; assay type: cell-based
[12] = biological target: GTPase KRas (Homo sapiens) (UniProt P01116); assay: Inhibition of KRAS in human MDA-MB-231 cells assessed as reduction in phosphorylated ERK1/2 at Thr185/Tyr187 residues protein level at 35 uM measured after 24 hrs by Western blot analysis relative to control; assay type: cell-based
[13] = biological target: GTPase KRas (Homo sapiens) (UniProt P01116); assay: Inhibition of KRAS in human MCF7 cells assessed as reduction in MEK1/2 9G3 protein level at 15 uM measured after 24 hrs by Western blot analysis relative to control; assay type: cell-based
[14] = biological target: GTPase KRas (Homo sapiens) (UniProt P01116); assay: Inhibition of KRAS in human MCF7 cells assessed as reduction in ERK1/2 137F5 protein level at 15 uM measured after 24 hrs by Western blot analysis relative to control; assay type: cell-based
[15] = biological target: GTPase KRas (Homo sapiens) (UniProt P01116); assay: Inhibition of KRAS in human MCF7 cells assessed as reduction in Pan RAS protein level at 25 uM measured after 24 hrs by Western blot analysis relative to control; assay type: cell-based
[16] = biological target: GTPase KRas (Homo sapiens) (UniProt P01116); assay: Inhibition of KRAS in human MCF7 cells assessed as reduction in phosphorylated RAF-1 E1 protein level at 25 uM measured after 24 hrs by Western blot analysis relative to control; assay type: cell-based
[17] = biological target: GTPase KRas (Homo sapiens) (UniProt P01116); assay: Inhibition of KRAS in human MCF7 cells assessed as reduction in phosphorylated MEK1/2 at Ser217/221 residues protein level at 25 uM measured after 24 hrs by Western blot analysis relative to control; assay type: cell-based
[18] = biological target: GTPase KRas (Homo sapiens) (UniProt P01116); assay: Inhibition of KRAS in human MCF7 cells assessed as reduction in ERK1/2 137F5 protein level at 25 uM measured after 24 hrs by Western blot analysis relative to control; assay type: cell-based
[19] = biological target: GTPase KRas (Homo sapiens) (UniProt P01116); assay: Inhibition of KRAS in human MCF7 cells assessed as reduction in phosphorylated ERK1/2 at Thr185/Tyr187 residues protein level at 35 uM measured after 24 hrs by Western blot analysis relative to control; assay type: cell-based
[20] = biological target: GTPase KRas (Homo sapiens) (UniProt P01116); assay: Inhibition of KRAS in human MDA-MB-231 cells assessed as reduction in phosphorylation of RAF measured after 24 hrs by Western blot analysis; assay type: cell-based
[21] = biological target: GTPase KRas (Homo sapiens) (UniProt P01116); assay: Inhibition of KRAS in human MDA-MB-231 cells assessed as reduction in phosphorylation of ERK measured after 24 hrs by Western blot analysis; assay type: cell-based
[22] = test system: MDA-MB-231; assay: Induction of apoptosis in human MDA-MB-231 cells assessed as late apoptotic cells at 15 uM measured after 48 hrs by annexinV-FITC/propidium iodide staining based flow cytometry (reference value: 0 %); assay type: functional
[23] = test system: MDA-MB-231; assay: Induction of apoptosis in human MDA-MB-231 cells assessed as necrotic cells at 15 uM measured after 48 hrs by annexinV-FITC/propidium iodide staining based flow cytometry (reference value: 0.31 %); assay type: functional
[24] = test system: MDA-MB-231; assay: Induction of apoptosis in human MDA-MB-231 cells assessed as live cells at 25 uM measured after 48 hrs by annexinV-FITC/propidium iodide staining based flow cytometry (reference value: 99 %); assay type: functional
[25] = test system: MDA-MB-231; assay: Induction of apoptosis in human MDA-MB-231 cells assessed as early apoptotic cells at 25 uM measured after 48 hrs by annexinV-FITC/propidium iodide staining based flow cytometry (reference value: 0.69 %); assay type: functional
[26] = test system: MDA-MB-231; assay: Induction of apoptosis in human MDA-MB-231 cells assessed as necrotic cells at 25 uM measured after 48 hrs by annexinV-FITC/propidium iodide staining based flow cytometry (reference value: 0.31 %); assay type: functional
[27] = test system: MCF7; assay: Induction of apoptosis in human MCF7 cells assessed as live cells at 15 uM measured after 48 hrs by annexinV-FITC/propidium iodide staining based flow cytometry (reference value: 99.71 %); assay type: functional
[28] = test system: MCF7; assay: Induction of apoptosis in human MCF7 cells assessed as live cells at 25 uM measured after 48 hrs by annexinV-FITC/propidium iodide staining based flow cytometry (reference value: 99.71 %); assay type: functional
[29] = test system: MCF7; assay: Induction of apoptosis in human MCF7 cells assessed as early apoptotic cells at 25 uM measured after 48 hrs by annexinV-FITC/propidium iodide staining based flow cytometry (reference value: 0.04 %); assay type: functional
[30] = test system: MCF7; assay: Induction of apoptosis in human MCF7 cells assessed as late apoptotic cells at 25 uM measured after 48 hrs by annexinV-FITC/propidium iodide staining based flow cytometry (reference value: 0.17 %); assay type: functional
[31] = test system: MDA-MB-231; assay: Cell cycle arrest in human MDA-MB-231 cells assessed as accumulation at G1 phase at 15 uM measured after 48 hrs by propidium iodide/RNase staining based flow cytometry (reference value: 74.56 %); assay type: functional
[32] = test system: MDA-MB-231; assay: Cell cycle arrest in human MDA-MB-231 cells assessed as accumulation at G2 phase at 15 uM measured after 48 hrs by propidium iodide/RNase staining based flow cytometry (reference value: 3.35 %); assay type: functional

In the case of `O=P(Oc1ccccc1)(Oc1ccccc1)OC1C2OC3(c4ccccc4)OC(C2O)C(O)C1O3` (configuration not stated), the IC50 [1] is reported as 39.5 µM, the fold change (FC) [2] is reported as 0.91 and the fold change (FC) [3] is reported as 0.99. It also gave a fold change (FC) [4] of 1.15, a fold change (FC) [5] of 1.18 and a fold change (FC) [6] of 0.14. For the same compound, the fold change (FC) [7] was 0.61, the fold change (FC) [8] was 0.97 and the fold change (FC) [9] was 1. It also gave a fold change (FC) [10] of 0.17, a fold change (FC) [11] of 0.46 and a fold change (FC) [12] of 0.42. It also gave a fold change (FC) [13] of 0.97, a fold change (FC) [14] of 1.25 and a fold change (FC) [15] of 1.16. It also gave a fold change (FC) [16] of 0.99, a fold change (FC) [17] of 1.12 and a fold change (FC) [18] of 1.14. For the same compound, the fold change (FC) [19] was 0.35, the inhibition [20] was “Dose-dependent effect” and the inhibition [21] was “Dose-dependent effect”. It also gave an Activity [22] of 0.39%, an Activity [23] of 7.3% and an Activity [24] of 62.65%. It also gave an Activity [25] of 0.07%, an Activity [26] of 16.64% and an Activity [27] of 32.46%. For the same compound, the Activity [28] was 36.83%, the Activity [29] was 1.23% and the Activity [30] was 0.49%. For the same compound, the Activity [31] was 34.45% and the Activity [32] was 21.02%.
